# Article PMC11371747, “The role of l-leucovorin uptake and metabolism in the modulation of 5-fluorouracil efficacy and antifolate toxicity” (Frontiers in Pharmacology, 2024)
# Where two headings read alike, the source gives them in different places.
# Assays:
# folate receptor α (FRα) = molecular target: T1, folate receptor α (FRα) (Homo sapiens, UniProt P15328); test: Intact cell competitive binding assay, displacement of [3H]-folic acid from FRα in KB cells
# T1 construct: endogenous in cells; host or cells: KB cells (FRα++)
# Experimental: In order to determine whether the LV isomers were substrates for either folate receptor α (FRα), RFC and/or PCFT, we used model systems with established overexpression of these receptors or transporters ([Westerhof et al., 1995a]; [Westerhof et al., 1995b]; [Lasry et al., 2008]; [Van der Heijden et al., 2009]).
# For FRα we used KB cells ([Westerhof et al., 1995b]). An intact cell binding assay for competitive binding was performed as described previously ([Westerhof et al., 1995a]). Briefly, cells were washed with Hanks balanced salt solution and 6 mM glucose (HBSS, pH 7.4), suspended in 1 mL of this solution (1*10^6 for KB cells) and incubated at 4°C for 15 min with 100 pmol [^3H]-folic acid [(^3H)-FA], in the presence and absence of unlabelled folic acid or LV stereoisomers. Cells were collected by centrifugation and analysed for radioactivity. Relative affinities for FRα were defined as the inverse ratio of compound to displace 50% of radioactive folic acid from FRα. The relative affinity of folic acid was set at 1.
# H28 cells = test: Growth inhibition, SRB assay, H28 (MPM); type: cell-based, human; conditions: for IC50: H28, SRB, read-out: IC50, 72 h drug exposure
# Experimental: (§1) Briefly, cells were seeded in triplicate in 96-well plates at their pre-established optimal density (CHO cells: 2,500 cells/100 μL; WiDr and HT29: 3,500 cells/100 μL; WiDr-LF/LV, LS174T: 5,000 cells/100 μL; CaCo2, CaCo2-LF/LV, H292, H28 and MSTO-211H: 6,000 cells/100 μL; H460, SW948 and SW1398: 7,000 cells/100 μL) and were allowed to attach for ∼ 24 h at 37°C in 5% CO2 and 100% humidified incubator. Thereafter, 100 μL of drug dilution without LV, or with 5 μM l-LV/5 μM d-LV/10 μM dL-LV (or any LV alone) were added. Cells were allowed to grow for 72 h at 37°C in 5% CO2 and 100% humidity. The t = 0 h control plate consisted of cells plated on the same day as the other cells, but after 24 h at 37°C in 5% CO2 and 100% humidity, only 100 μL medium was added and the cells were fixed immediately with 50% trichloroacetic acid (TCA) in milliQ water (25 μL per well) and put at 4°C for at least 1 h. Plates were washed five times with water and dried. Cells were stained with the SRB protein dye (0.4% (w/v) in 1% acetic acid. Excess dye was washed away four times with 1% acetic acid and plates were dried again. 200 μL of Tris (10 mM Tris (hydroxymethyl)-aminomethane in MQ) was added and optical density (OD) was read at 492 nm after mixing 2–3 min on a plate shaker.
# CHO/C5-PCFT cells = test: Growth inhibition, SRB assay, CHO/C5-PCFT (PCFT-transfected); type: cell-based, Chinese hamster
# Experimental: as §1
# AA8 cells = test: Growth inhibition, SRB assay, AA8 (parental CHO); type: cell-based, Chinese hamster; conditions: for IC50: AA8 parental CHO
# Experimental: as §1
# [1] = Cricetulus griseus, antifolate alone
# T1 sequence (P15328 25-257): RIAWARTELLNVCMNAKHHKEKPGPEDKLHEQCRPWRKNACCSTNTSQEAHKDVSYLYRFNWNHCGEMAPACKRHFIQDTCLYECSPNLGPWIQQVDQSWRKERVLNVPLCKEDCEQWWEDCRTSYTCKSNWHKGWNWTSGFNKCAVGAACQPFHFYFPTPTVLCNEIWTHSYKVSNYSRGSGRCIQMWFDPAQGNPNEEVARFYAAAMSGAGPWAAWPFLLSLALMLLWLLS
structure (smiles),measurement,setting,value
"C#CCC(Cc1cnc2nc(N)nc(N)c2n1)c1ccc(C(=O)N[C@@H](CCC(=O)O)C(=O)O)cc1 (stereo partly shown) [PLX, pralatrexate]",Molar excess over folic acid required for displacement of [3H]-FA binding from FRα,folate receptor α (FRα),> 100 fold
same,Relative affinity for FRα,"folate receptor α (FRα); 100 pmol [3H]-FA, inverse ratio of amount of drug displacing 50% of [3H]-FA, FA set to 1",0.0035
same,IC50,H28 cells; antifolate + 5 µM l-LV,14.6 µM
same,Relative protection by 5 µM l-LV,"H28 cells; H28, ratio IC50 antifolate + LV / IC50 antifolate",1834 ± 108
same,IC50,"H28 cells; Homo sapiens, NCI-H28, 72 h, antifolate alone",0.011 ± 0.0006 µM
same,IC50,CHO/C5-PCFT cells; [1],6.8 µM
same,IC50,CHO/C5-PCFT cells; antifolate + 5 µM l-LV,87.5 µM
same,"Protection by l-LV, increase of the IC50 value","AA8 cells; AA8 cells, 5 µM l-LV",965 fold
same,IC50,AA8 cells; antifolate + 5 µM l-LV,3.67 µM
same,IC50,AA8 cells; [1],0.0038 µM
